The inhibition is the change of the read-out against control, counted positive when it falls. The term IC50 denotes the point on the concentration scale where inhibition reaches its midpoint. One may read the half-life as the time needed for the level to fall by half in the phase considered.

Where two headings read alike, the source gives them in different places.

Our source for the inhibition, IC50 and half-life values is patent US20130252930A1 (BIOMARIN PHARMACEUTICAL INC., priority 2010, published 2013).

For series [1], the target named is T1, Cyp21 enzyme (Human HEK 293-Cyp21 stable transfected cells) (Homo sapiens, UniProt P08686).
T1 construct: expressed in transfected cells
T1 sequence (P08686 1-495): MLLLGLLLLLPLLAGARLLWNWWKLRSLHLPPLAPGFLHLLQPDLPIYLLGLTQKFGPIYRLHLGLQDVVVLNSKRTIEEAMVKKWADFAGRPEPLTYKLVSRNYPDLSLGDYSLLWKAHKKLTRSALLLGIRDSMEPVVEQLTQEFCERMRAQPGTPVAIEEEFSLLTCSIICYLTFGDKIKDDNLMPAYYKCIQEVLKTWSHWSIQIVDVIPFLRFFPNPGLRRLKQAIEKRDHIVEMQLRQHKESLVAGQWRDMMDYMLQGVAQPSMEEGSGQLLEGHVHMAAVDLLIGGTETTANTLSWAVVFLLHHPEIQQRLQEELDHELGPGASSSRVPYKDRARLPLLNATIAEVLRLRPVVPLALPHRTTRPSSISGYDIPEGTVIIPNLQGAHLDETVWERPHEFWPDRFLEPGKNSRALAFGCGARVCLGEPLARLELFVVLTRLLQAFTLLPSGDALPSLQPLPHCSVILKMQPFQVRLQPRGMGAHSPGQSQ
The series is described as follows: CYP21-HEK293 enzymatic assay (% inhibition at 100 nM) (Biological Example 10). In kind it is cell-based. The following applies: HEK 293-Cyp21 cells. How it is done:
Proceeding using methods similar to those described in Biological Example 11, the percent inhibition at 100 nM was measured.
This assay was used to determine compound activity against Cyp21 enzyme. Human HEK 293-Cyp21 stable transfected cells (maintained in complete growth media DMEM+10% FBS, supplemented with 125 ug/mL Hygromycin) were seeded in a 96-well plate at 20,000 cells/well/100 uL in DMEM plus 10% FBS and allowed to attach overnight. The next day, 20 μL medium was carefully removed and 10 μL of 10× pre-made compounds in DMEM+10% FBS+10% methanol was transferred to the wells to final concentrations of 1000, 100, 10, 1, or 0.1 nM. Mock treatment was 1% methanol in growth media and the cells were left at 37° C., 5% CO2 for 5 hr. After the incubation, 10 μL of substrate progesterone (Sigma) was added to the wells to make a final concentration of 10 μM. The cells were incubated the cells at 37° C. for 20 hr. At the end of incubation, 90 μL of conditioned media was removed to measure DOC level by ELISA.
Preparation of the DOC ELISA: 100 μL of coating buffer (0.025M PBS pH 7.4) containing 200 ng/mL DOC-3-carboxymethyloxime-BSA (Steraloids. inc, Cat#3469-000) was added to each well of a 96-well plate and incubated overnight at 4° C. The next day, the plates were washed twice with 250 μl of wash solution (0.015M PBS pH 7.4 containing 0.05% Tween 20). After being washed, the wells were blocked with 250 μL blocking buffer (3% BSA in 0.025M PBS, pH 7.4) at 37° C. for 2 h. The plates were washed again 3 times as before, and then 90 μL of sample /standards (prepared in complete growth media) was added into the appropriate wells followed by 10 μL of antibody solution (1:450 rabbit anti-DOC in 0.6% BSA/PBS). The plates were incubated at room temperature for 2 h on a shaker. The contents of the wells were removed and the plate was washed 4 times. After the final wash, 100 μL of secondary antibody (1:12000 HRP-goat-anti-rabbit IgG conjugate 0.6% BSA/PBS) was added into each well. The plate was incubated at 30° C. for 45 min. The plate was washed again 4 times and 100 μL of TMB substrate solution was added to each well. The plate was incubated at room temperature for 10 min. 100 μL of stop solution was added to each well and the optical density was read at 450 nm.
The mean absorbance value for each sample was used to determine the corresponding concentration from the standard curve. Data was analyzed with “log(antagonist) vs response variable slope” under “non-linear regression analysis” using Prism5 software.

The target of series [2] is T2, CYP17 (human testicular microsome) (Homo sapiens, UniProt P05093).
T2 construct: using microsomal fraction from human testis (Celsis Cat #S00110) as the enzyme source; tissue Celsis S00110; host or cells: human testis microsomal fraction
T2 sequence (P05093 1-508): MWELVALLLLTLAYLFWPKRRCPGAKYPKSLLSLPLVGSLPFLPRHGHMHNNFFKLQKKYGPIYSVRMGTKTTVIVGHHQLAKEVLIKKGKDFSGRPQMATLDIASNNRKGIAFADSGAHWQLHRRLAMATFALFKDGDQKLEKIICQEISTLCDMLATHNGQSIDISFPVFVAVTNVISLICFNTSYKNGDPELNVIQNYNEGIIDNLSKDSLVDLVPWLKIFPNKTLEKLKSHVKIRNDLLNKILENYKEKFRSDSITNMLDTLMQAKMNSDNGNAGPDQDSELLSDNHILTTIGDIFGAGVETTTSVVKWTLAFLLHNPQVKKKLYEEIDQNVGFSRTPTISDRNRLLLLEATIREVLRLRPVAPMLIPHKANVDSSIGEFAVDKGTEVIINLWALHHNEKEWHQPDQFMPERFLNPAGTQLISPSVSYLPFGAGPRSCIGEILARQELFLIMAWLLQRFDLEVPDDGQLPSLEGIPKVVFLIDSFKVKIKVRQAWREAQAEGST
As to the kind of experiment: CYP17 enzymatic assay (% inhibition at 1 nM) (Biological Example 12). In kind it is biochemical.

Series [3] addresses T2, CYP17 (human testicular microsome). The series is described as follows: CYP17 enzymatic assay (IC50) (Biological Example 4). In kind it is biochemical. The following applies: human testicular microsome.
For series [4] the target is unchanged. The series is described as follows: CYP17 enzymatic assay (% inhibition at 10 nM), version 1 (Biological Example 5). In kind it is biochemical.
Series [5] is described as follows: Human liver microsome stability assay (Biological Example 8b). The following applies: liver microsomes, pH 7.4.
Description: The reaction was started with addition of excess NADPH (5 mg/mL, 15 μL in 0.1 M potassium phosphate buffer, 1.0 mM EDTA, pH 7.4), the total volume is 45 μL (compound final concentration was 1 μM). […] 50 μL of the supernatant was transferred from each well into a 96-well sample plate containing 50 μL of ultra-pure water (Millipore) for LC-MS/MS analysis.
The mark [6] stands for this setting: 100 nM compound, read-out: Biological Example No. 10: CYP21-HEK293 percent inhibition at 100 nM.
The mark [7] stands for this setting: DHEA by ELISA, read-out: Biological Example No. 4: CYP17 enzymatic assay IC50.
Where [8] appears, read: 10 nM compound, DHEA by ELISA, read-out: Biological Example No. 5: CYP17 percent inhibition at 10 nM (version 1).
Setting [9] is: read-out: CYP17 enzymatic assay IC50 (Biological Example No. 4).
Where [10] appears, read: compound at 100 nM, read-out: CYP21-HEK293 enzymatic assay % inhibition at 100 nM (Biological Example No. 10).
The mark [11] stands for this setting: compound at 1 nM, read-out: CYP17 enzymatic assay % inhibition at 1 nM (Biological Example No. 12).
The mark [12] stands for this setting: read-out: Biological Example No. 4: CYP17 enzymatic assay IC50.
Setting [13] is: compound at 100 nM, read-out: Biological Example No. 10: CYP21-HEK293 enzymatic assay % inhibition at 100 nM.

In the case of `C[C@]12CCC(=O)C=C1CCC1C2CC[C@]2(C)C(c3cccnc3)=CCC12` (stereo partly drawn) [B, (10R,13S)-10,13-dimethyl-17-(pyridin-3-yl)-6,7,8,9,10,11,12,13,14,15-decahydro-1H-cyclopenta[a]phenanthren-3(2H)-one, reference compound], the inhibition at 0.1 µM in series [1] (setting [6]) was at least 30%. Further, the inhibition at 0.001 µM in series [2] (1 nM compound, DHEA by ELISA, read-out: Biological Example No. 12: CYP17 percent inhibition at 1 nM) was above 50%.

For the molecule `Cc1cncc(C2=CC[C@H]3[C@@H]4CCC5=CC(=O)N(C)CC[C@]5(C)[C@H]4CC[C@]23C)c1` [Compound 54], the IC50 in series [3] (setting [7]) was below 11 nM. Besides, in series [4] (setting [8]), the inhibition at 0.01 µM is 50 to 80%. Besides, the inhibition at 0.1 µM in series [1] (setting [6]) is below 30%.

`COc1cncc(C2=CC=C3[C@@H]4CCC5=CC(=O)NCC[C@]5(C)[C@H]4CC[C@]23C)c1` [Compound 86, (5aR,7aS)-8-(5-methoxypyridin-3-yl)-5a,7a-dimethyl-4,5,5a,5b,6,7,7a,10b,11,12-decahydrocyclopenta[5,6]naphtho[2,1-c]azepin-3(2H)-one]: the IC50 in series [3] (setting [7]) was below 11 nM. For the same molecule, the inhibition at 0.01 µM in series [4] (setting [8]) was 50 to 80%. Besides, in series [1] (setting [6]), the inhibition at 0.1 µM is at least 30%.

In the case of `C[C@]12CCCC(=O)CC1=CC[C@@H]1[C@@H]2CC[C@]2(C)C(c3cnccn3)=CC[C@@H]12` [Compound 142, 10a,12a-dimethyl-1-(pyrazin-2-yl)-3,3a,3b,4,8,9,10,10a,10b,11,12,12a-dodecahydrocyclohepta[a]cyclopenta[f]naphthalen-7(6H)-one], the inhibition at 0.01 µM in series [4] (setting [8]) was above 80%. The inhibition at 0.1 µM in series [1] (setting [6]) was at least 30%. The molecule further showed a half-life at 1 μM in series [5] of 1 to 50 min.

`CCc1cncc(C2=CC[C@H]3[C@@H]4CCC5=CC(=O)N(C)CC[C@]5(C)[C@H]4CC[C@]23C)c1` [Compound 145]: in series [4] (setting [8]), the inhibition at 0.01 µM lay in the range of 50 to 80%. Besides, the inhibition at 0.1 µM in series [1] (setting [6]) was at least 30%.

`Cc1cncc(C2=CC=C3[C@@H]4CCC5=CC(=O)N(C)CC[C@]5(C)[C@H]4CC[C@]23C)c1` [Compound 160]: in series [4] (setting [8]), the inhibition at 0.01 µM lay within 50 to 80%. Further, the inhibition at 0.1 µM in series [1] (setting [6]) was below 30%.

In the case of `CN1CC[C@@]2(C)C(=CC1=O)CC[C@H]1C3=CC=C(c4cnccn4)[C@@]3(C)CC[C@@H]12` [Compound 184, (5aR,7aS)-3,5a,7a-trimethyl-8-(pyrazin-2-yl)-3,4,5,5a,5b,6,7,7a,11,12-decahydrocyclopenta[5,6]naphtho[1,2-d]azepin-2(10bH)-one], in series [3] (setting [9]), the IC50 is below 11 nM. Moreover, in series [4] (compound at 10 nM, read-out: CYP17 enzymatic assay % inhibition at 10 nM (Biological Example No. 5)), the inhibition at 0.01 µM is above 80%. For the same molecule, in series [1] (setting [10]), the inhibition at 0.1 µM was at least 30%. Besides, the inhibition at 0.001 µM in series [2] (setting [11]) was 10 to 50%.

Consider `C[C@]12CCC3C(CCC4=CC(=NO)CC[C@@]43C)C1=CC=C2c1cccnc1` (stereo partly drawn) [Compound 288, (10R,13S)-10,13-dimethyl-17-(pyridin-3-yl)-6,7,8,9,10,11,12,13-octahydro-1H-cyclopenta[a]phenanthren-3(2H)-one oxime], for which the IC50 in series [3] (setting [9]) is below 11 nM. In series [1] (setting [10]), the inhibition at 0.1 µM was below 30%. Also, the inhibition at 0.001 µM in series [2] (setting [11]) was above 50%. The molecule also had a half-life at 1 μM in series [5] of 1 to 50 min.

Regarding `CC1CC2C3=CC=C(c4cncc(N)c4)[C@@]3(C)CCC2[C@@]2(C)CCC(=O)C=C12` (stereo partly drawn) [Compound 329, (10R,13S)-17-(5-aminopyridin-3-yl)-6,10,13-trimethyl-6,7,8,9,10,11,12,13-octahydro-1H-cyclopenta[a]phenanthren-3(2H)-one], in series [3] (setting [12]), the half-inhibitory concentration (IC50) is below 11 nM. For the same molecule, in series [1] (setting [13]), the inhibition at 0.1 µM is below 30%.

On to `C[C@]12CCC3C(CCC4=CC(=O)CC[C@@]43C)C1=CC=C2c1cncc(N)c1` (stereo partly drawn) [Compound 360, (10R,13S)-17-(5-aminopyridin-3-yl)-10,13-dimethyl-6,7,8,9,10,11,12,13-octahydro-1H-cyclopenta[a]phenanthren-3(2H)-one], for which the concentration for half-maximal inhibition (IC50) in series [3] (setting [12]) was below 11 nM. For the same molecule, the inhibition at 0.1 µM in series [1] (setting [13]) was below 30%.

Consider `C[C@]12CCC(=O)C=C1CC[C@@H]1[C@@H]2CC[C@]2(C)C(c3cccnc3)CC[C@@H]12` (stereo partly drawn) [Compound 419, (10R,13S)-10,13-dimethyl-17-(pyridin-3-yl)-6,7,8,9,10,11,12,13,14,15,16,17-dodecahydro-1H-cyclopenta[a]phenanthren-3(2H)-one], for which, in series [1] (setting [10]), the inhibition at 0.1 µM is at least 30%. In addition, the inhibition at 0.001 µM in series [2] (setting [11]) was 10 to 50%.
